The source of these data is patent publication US20250282794A1 (CURADEV PHARMA LTD, priority 2022, published 2025).

Sequence of recombinant full length HPK-1 enzyme (Q92918 whole entry, species assumed): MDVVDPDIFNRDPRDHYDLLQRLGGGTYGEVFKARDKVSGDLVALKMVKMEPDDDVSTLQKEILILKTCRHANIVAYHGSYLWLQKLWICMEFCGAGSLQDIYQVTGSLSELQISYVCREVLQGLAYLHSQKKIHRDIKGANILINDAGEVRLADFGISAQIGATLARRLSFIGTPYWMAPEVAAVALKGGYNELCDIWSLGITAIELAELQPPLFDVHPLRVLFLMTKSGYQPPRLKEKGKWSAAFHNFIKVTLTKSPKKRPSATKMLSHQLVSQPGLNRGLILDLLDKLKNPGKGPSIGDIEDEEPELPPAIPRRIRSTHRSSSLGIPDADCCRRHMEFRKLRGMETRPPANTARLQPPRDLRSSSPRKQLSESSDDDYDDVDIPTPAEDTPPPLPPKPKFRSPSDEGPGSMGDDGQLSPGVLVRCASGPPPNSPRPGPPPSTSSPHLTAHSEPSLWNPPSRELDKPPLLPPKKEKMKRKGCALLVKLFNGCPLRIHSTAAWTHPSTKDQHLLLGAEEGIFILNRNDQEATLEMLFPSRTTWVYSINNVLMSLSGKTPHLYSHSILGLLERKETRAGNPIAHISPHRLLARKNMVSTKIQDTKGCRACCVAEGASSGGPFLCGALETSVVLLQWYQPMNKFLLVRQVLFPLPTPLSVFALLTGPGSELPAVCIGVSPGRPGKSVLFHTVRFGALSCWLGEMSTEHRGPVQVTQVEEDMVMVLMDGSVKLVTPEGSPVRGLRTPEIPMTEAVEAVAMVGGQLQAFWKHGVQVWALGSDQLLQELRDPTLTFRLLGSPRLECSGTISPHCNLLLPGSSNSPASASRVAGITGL

The test deals with recombinant full length HPK-1 enzyme (Homo sapiens (Human), UniProt Q92918). In words: HPK-1 biochemical enzyme assay (ADP-Glo kinase inhibition). The note with it: recombinant full length HPK-1 6.8 nM, 10 μM ATP, 12.5 μM MBP, 30 mins at 25° C. In short, it runs like this:
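ADP-Glo readout of ADP formed after a 30 min, 25° C. reaction of 6.8 nM full-length HPK-1 with swine myelin basic protein (12.5 μM) and ATP (10 μM) in Tris pH 7.4 buffer with MgCl2, DTT and BSA. Ten compound concentrations tested; percent inhibition set against vehicle (0%) and no-enzyme (100%) controls gave IC50.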
For orientation: ADP-Glo first removes unused ATP, then detects ADP through luciferase.
As usually defined, the IC50 is the concentration needed to halve the response being measured. With `Cc1c(Nc2cc[nH]c(=O)c2C(=O)Nc2ccc(N3CCC(O)(CN(C)C)CC3)cc2)cnc2c1NCCO2` [Example 375, N-(4-(4-((dimethylamino)methyl)-4-hydroxypiperidin-1-yl)phenyl)-4-((8-methyl-2,3-dihydro-1H-pyrido[2,3-b][1,4]oxazin-7-yl)amino)-2-oxo-1,2-dihydropyridine-3-carboxamide], the IC50 was ≤ 10 nM.

Regarding `Cc1c(Nc2cc[nH]c(=O)c2C(=O)Nc2ccc(N3CCN(C4CC4)CC3)c(F)c2)cnc2c1NCCO2` [Example 376, N-(4-(4-cyclopropylpiperazin-1-yl)-3-fluorophenyl)-4-((8-methyl-2,3-dihydro-1H-pyrido[2,3-b][1,4]oxazin-7-yl)amino)-2-oxo-1,2-dihydropyridine-3-carboxamide], the half-inhibitory concentration (IC50) is ≤ 10 nM.

On to `Cc1c(Nc2cc[nH]c(=O)c2C(=O)Nc2ccc(N3CCN4C(=O)N(C)CC4C3)cc2)cnc2c1NCCO2` (stereo not drawn) [Example 377, 4-((8-methyl-2,3-dihydro-1H-pyrido[2,3-b][1,4]oxazin-7-yl)amino)-N-(4-(2-methyl-3-oxohexahydroimidazo[1,5-a]pyrazin-7(1H)-yl)phenyl)-2-oxo-1,2-dihydropyridine-3-carboxamide], for which the IC50 was ≤ 10 nM.

For `Cc1c(Nc2cc[nH]c(=O)c2C(=O)Nc2ccc(N3CCN(C(C)c4ccn[nH]4)CC3)cc2)cnc2c1NCCO2` (stereo not drawn) [Example 378, N-(4-(4-(1-(1H-pyrazol-5-yl)ethyl)piperazin-1-yl)phenyl)-4-((8-methyl-2,3-dihydro-1H-pyrido[2,3-b][1,4]oxazin-7-yl)amino)-2-oxo-1,2-dihydropyridine-3-carboxamide], the half-maximal inhibitory concentration (IC50) is ≤ 10 nM.

Regarding `Cc1c(Nc2cc[nH]c(=O)c2C(=O)Nc2ccc(N3CCN(C4COC4)CC3)c(F)c2)cnc2c1NCCO2` [Example 379, N-(3-fluoro-4-(4-(oxetan-3-yl)piperazin-1-yl)phenyl)-4-((8-methyl-2,3-dihydro-1H-pyrido[2,3-b][1,4]oxazin-7-yl)amino)-2-oxo-1,2-dihydropyridine-3-carboxamide], the IC50 is ≤ 10 nM.

For the compound `Cc1c(Nc2cc[nH]c(=O)c2C(=O)Nc2ccc(N3CCN(C4(C)COC4)CC3)cc2)cnc2c1NCCO2` [Example 380, 4-((8-methyl-2,3-dihydro-1H-pyrido[2,3-b][1,4]oxazin-7-yl)amino)-N-(4-(4-(3-methyloxetan-3-yl)piperazin-1-yl)phenyl)-2-oxo-1,2-dihydropyridine-3-carboxamide], the concentration for half-maximal inhibition (IC50) was 10 to 100 nM.

Consider `Cc1c(Nc2cc[nH]c(=O)c2C(=O)Nc2ccc(N3CCC(N(C)C(=O)C(C)C)C3)cc2)cnc2c1NCCO2` (stereo not drawn) [Example 381, 4-((8-methyl-2,3-dihydro-1H-pyrido[2,3-b][1,4]oxazin-7-yl)amino)-N-(4-(3-(N-methylisobutyramido)pyrrolidin-1-yl)phenyl)-2-oxo-1,2-dihydropyridine-3-carboxamide], for which the IC50 was 10 to 100 nM.

As to `Cc1c(Nc2cc[nH]c(=O)c2C(=O)Nc2ccc(N3CCC4(CC3)CC4)cc2)cnc2c1NCCO2` [Example 382, N-(4-(6-azaspiro[2.5]octan-6-yl)phenyl)-4-((8-methyl-2,3-dihydro-1H-pyrido[2,3-b][1,4]oxazin-7-yl)amino)-2-oxo-1,2-dihydropyridine-3-carboxamide], the concentration for half-maximal inhibition (IC50) was 10 to 100 nM.

For the compound `Cc1c(Nc2cc[nH]c(=O)c2C(=O)Nc2ccc(N3CCN(C(C)(C)C)CC3)cc2)cnc2c1NCCO2` [Example 383, N-(4-(4-(tert-butyl)piperazin-1-yl)phenyl)-4-((8-methyl-2,3-dihydro-1H-pyrido[2,3-b][1,4]oxazin-7-yl)amino)-2-oxo-1,2-dihydropyridine-3-carboxamide], the IC50 is ≤ 10 nM.

`Cc1c(Nc2cc[nH]c(=O)c2C(=O)Nc2ccc(C3CCN(C(C)C)CC3)cc2)cnc2c1NCC(C)O2` (stereo not drawn) [Example 384, 4-((3,8-dimethyl-2,3-dihydro-1H-pyrido[2,3-b][1,4]oxazin-7-yl)amino)-N-(4-(1-isopropylpiperidin-4-yl)phenyl)-2-oxo-1,2-dihydropyridine-3-carboxamide]: the IC50 lay within 10 to 100 nM.

For the compound `CCN1CCN(c2ccc(NC(=O)c3c(Nc4cnc5c(c4C)NCC(C)O5)cc[nH]c3=O)cc2F)CC1` (stereo not drawn) [Example 385, 4-((3,8-dimethyl-2,3-dihydro-1H-pyrido[2,3-b][1,4]oxazin-7-yl)amino)-N-(4-(4-ethylpiperazin-1-yl)-3-fluorophenyl)-2-oxo-1,2-dihydropyridine-3-carboxamide], the 50% inhibitory concentration (IC50) was 10 to 100 nM.

For the compound `CCN1CCN(c2ccc(NC(=O)c3c(Nc4cnc5c(c4C)NCC(C)O5)cc[nH]c3=O)cc2F)CC1` (stereo not drawn) [Example 386, 4-((3,8-dimethyl-2,3-dihydro-1H-pyrido[2,3-b][1,4]oxazin-7-yl)amino)-N-(4-(4-ethylpiperazin-1-yl)-3-fluorophenyl)-2-oxo-1,2-dihydropyridine-3-carboxamide], the IC50 was ≤ 10 nM.

For the compound `Cc1c(Nc2cc[nH]c(=O)c2C(=O)Nc2ccc(N3CCN(CCF)CC3)c(F)c2)cnc2c1NCCO2` [Example 387, N-(3-fluoro-4-(4-(2-fluoroethyl)piperazin-1-yl)phenyl)-4-((8-methyl-2,3-dihydro-1H-pyrido[2,3-b][1,4]oxazin-7-yl)amino)-2-oxo-1,2-dihydropyridine-3-carboxamide], the IC50 lay in the range of 10 to 100 nM.

As for `CCN1CCN(c2c(F)cc(NC(=O)c3c(Nc4cnc5c(c4C)NCCO5)cc[nH]c3=O)cc2Cl)CC1` [Example 389, N-(3-Chloro-4-(4-ethylpiperazin-1-yl)-5-fluorophenyl)-4-((8-methyl-2,3-dihydro-1H-pyrido[2,3-b][1,4]oxazin-7-yl)amino)-2-oxo-1,2-dihydropyridine-3-carboxamide], the IC50 was ≤ 10 nM.

For the compound `CCN1CCN(c2c(F)cc(NC(=O)c3c(Nc4cnc5c(c4C)NCCO5)cc[nH]c3=O)cc2F)CC1` [Example 390, N-(4-(4-ethylpiperazin-1-yl)-3,5-difluorophenyl)-4-((8-methyl-2,3-dihydro-1H-pyrido[2,3-b][1,4]oxazin-7-yl)amino)-2-oxo-1,2-dihydropyridine-3-carboxamide], the IC50 was in the range of 10 to 100 nM.

Consider `Cc1c(Nc2cc[nH]c(=O)c2C(=O)Nc2ccc(N3CCN(C4CC4)CC3)c(Cl)c2)cnc2c1NCCO2` [Example 391, N-(3-chloro-4-(4-cyclopropylpiperazin-1-yl)phenyl)-4-((8-methyl-2,3-dihydro-1H-pyrido[2,3-b][1,4]oxazin-7-yl)amino)-2-oxo-1,2-dihydropyridine-3-carboxamide], for which the IC50 is ≤ 10 nM.

For `COC1(CN(C)C)CCN(c2ccc(NC(=O)c3c(Nc4cnc5c(c4C)NCCO5)cc[nH]c3=O)cc2)CC1` [Example 392, N-(4-(4-((dimethylamino)methyl)-4-methoxypiperidin-1-yl)phenyl)-4-((8-methyl-2,3-dihydro-1H-pyrido[2,3-b][1,4]oxazin-7-yl)amino)-2-oxo-1,2-dihydropyridine-3-carboxamide], the half-maximal inhibitory concentration (IC50) was ≤ 10 nM.

As for `Cc1c(Nc2cc[nH]c(=O)c2C(=O)Nc2ccc(N3CCN(C)CC3)c(CCO)c2)cnc2c1NCCO2` [Example 394, N-(3-(2-hydroxyethyl)-4-(4-methylpiperazin-1-yl)phenyl)-4-((8-methyl-2,3-dihydro-1H-pyrido[2,3-b][1,4]oxazin-7-yl)amino)-2-oxo-1,2-dihydropyridine-3-carboxamide], the half-inhibitory concentration (IC50) was 10 to 100 nM.
